One assay addresses TopBP1(1–290) wild-type (Homo sapiens, UniProt Q92547). Format: binding. The following applies: fluorescence polarization; 10 nM fluorescein-labelled peptide; 4°C, 30 min. For orientation: Polarisation of emitted light reports the rotation of a fluorescent probe.
The test system of assay [1] is TopBP1(1–290) double mutants. As to the kind of experiment: Fluorescence polarization binding, double mutants. Conditions: putative binding sites in both BRCT1 and BRCT2 disrupted. Further details: species or system human.
The subject of assay [2] is TopBP1(1–290). As to the kind of experiment: Co-precipitation. Format: binding, human. The following applies: Glutathione Sepharose; no Mg-ATP; SDS–PAGE.
In assay [3] the target is TopBP1(1–290) (human, UniProt Q92547 1-290). As to the kind of experiment: fluorescence polarisation.

Where no end group is shown, it is not given here. [ ]: non-standard residue; d: D form. pS = N[C@@H](COP(=O)(O)O)C(=O)O

Sequence of TopBP1(1–290) (human, UniProt Q92547 1-290) (Q92547 1-290): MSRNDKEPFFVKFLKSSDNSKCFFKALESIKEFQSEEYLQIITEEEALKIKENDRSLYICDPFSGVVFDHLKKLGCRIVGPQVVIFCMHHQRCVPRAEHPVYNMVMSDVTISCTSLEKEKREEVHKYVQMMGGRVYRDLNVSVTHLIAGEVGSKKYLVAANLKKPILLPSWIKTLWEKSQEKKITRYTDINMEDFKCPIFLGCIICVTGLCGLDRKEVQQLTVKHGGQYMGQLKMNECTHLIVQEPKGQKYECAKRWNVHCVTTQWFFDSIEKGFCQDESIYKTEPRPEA
Sequence of TopBP1(1–290) wild-type (Q92547 1-290): as above

On to “fluorescein-GGSDTDSH[pS]QDLGSPE [Rad9, pS272]”, for which the “Binding to wild-type TopBP1(1–290) (in words)” value on TopBP1(1–290) wild-type is “no significant affinity was observed”.

“fluorescein-GGPSPVLAED[pS]EGEG [Rad9, pS387]”: in assay [1], the “Interaction with TopBP1(1–290) double mutants (in words)” value is recorded as “no measurable interaction”.

B1: GST-Rad9Tail: GST-fusion with the C-terminus of human Rad9 (amino acids 264–391), expressed in E. coli (protein)
chain: TLSDTDSHSQDLGSPERHQPVPQLQAHSTPHPDDFANDDIDSYMIAMETTIGNEGSRVLPSISLSPGPQPPKSPGPHSEEEDEAEPSTVPGTPPPKKFRSLFFGSILAPVRSPQGPSPVLAEDSEGEG
modifications: left off: GST, N-terminal, kept
For B1, the “Co-precipitation of TopBP1(1–290) by GST fusion incubated with CK2α in the absence of Mg-ATP” value in the assay with TopBP1(1–290) [2] is “failed to co-precipitate detectable”.

In the assay with TopBP1(1–290) [3], fluorescein-GGPSPVLAED[pS]EGEG (also: phosphoserine at 387 (Rad9 numbering)) [Rad9, pS387 fluorescein-labelled peptide] had a Kd of 2.1 µM.

Broadly, the Kd is the equilibrium constant for the complex coming apart. The low end stands for higher affinity, the high end for lower affinity.

These data come from PMC3017600 (Nucleic Acids Research, 2010).
